Assay results reported in US20260138949A1, “NOVEL COMPOUND AS PHOSPHOLIPASE D INHIBITOR AND USE THEREOF” (UIF (UNIVERSITY INDUSTRY FOUNDATION), YONSEI UNIVERSITY, priority 2022, published 2026).

What follows are compounds tested on phospholipase D1 (assay: PLD activity in HCT116 cells ([3H]phosphatidylbutanol, TLC)). Conditions: compound 10 μM, cells without the compound = 100%.
Format: cell-based, human
Protocol: To evaluate the inhibitory effect of the compounds according to the present invention on phospholipase D1 activity, experiments were conducted as follows.
For the analysis of PLD activity in cells, human colon cancer cell line (HCT116) was cultured in a 6-well plate at 37° C. for 24 hours, washed twice with phosphate-buffered saline (PBS), and then replaced with medium containing [^3H]myristate and cultured for 24 hours. After the culture, the cells were washed three times with PBS, treated with 1-butanol, and the drug was added to a final concentration of 10 μM. The cells were trypsinized and suspended, and the amount of [^3H]phosphatidylbutanol produced in the cell suspension was measured and evaluated for PLD activity using thin layer chromatography (TLC), and the results are shown in Table 1 below.
The Remaining activity % at 10 μM in Table 1 is calculated by setting the amount of [^3H]phosphatidylbutanol produced in cells without the compound as 100% and calculating the amount of [^3H]phosphatidylbutanol produced in cells treated with the compound as a percentage. Therefore, the lower the value of Remaining activity %, the higher the PLD inhibitory activity.

SMILES | Remaining activity % at 10 μM
COc1ccc(NC(=O)c2cc3cc(F)ccc3[nH]2)cc1OC [Example 1-93, N-(3,4-dimethoxyphenyl)-5-fluoro-1H-indole-2-carboxamide] | 58.09%
O=C(Cc1c[nH]c2ccccc12)Nc1ccccc1F [Example 1-12, N-(2-fluorophenyl)-2-(1H-indol-3-yl)acetamide] | not active
O=C(Nc1ccc(Cl)c([N+](=O)[O-])c1)c1c[nH]c2ccccc12 [Example 1-1, N-(4-chloro-3-nitrophenyl)-1H-indole-3-carboxamide] | 86.43%
COc1ccc(CNC(=O)c2cc3cc(F)ccc3[nH]2)cc1OC [Example 1-94, N-(3,4-dimethoxybenzyl)-5-fluoro-1H-indole-2-carboxamide] | 53.46%
O=C(Nc1ccc(Cl)c(Cl)c1)c1c[nH]c2ccccc12 [Example 1-4, N-(3,4-dichlorophenyl)-1H-indole-3-carboxamide] | 56.19%
O=C(Nc1cc(F)cc(F)c1)c1cc2cc(F)ccc2[nH]1 [Example 1-92, N-(3,5-difluorophenyl)-5-fluoro-1H-indole-2-carboxamide] | 56.88%
O=C(Cc1c[nH]c2ccccc12)Nc1ccc(C(F)(F)F)cc1 [Example 1-26, 2-(1H-indol-3-yl)-N-(4-(trifluoromethyl)phenyl)acetamide] | 82.43%
O=C(Cc1c[nH]c2ccccc12)NCc1ccc(F)cc1 [Example 1-37, N-(4-fluorobenzyl)-2-(1H-indol-3-yl)acetamide] | not active
O=C(Nc1cc(C(F)(F)F)cc(C(F)(F)F)c1)c1cc2cc(Cl)ccc2[nH]1 [Example 1-99, N-(3,5-bis(trifluoromethyl)phenyl)-5-chloro-1H-indole-2-carboxamide] | not active
O=C(Cc1c[nH]c2ccccc12)NNc1ccccc1Cl [Example 1-51, N′-(2-chlorophenyl)-2-(1H-indol-3-yl)acetohydrazide] | 82.82%
O=C(Nc1ccc(O)c(O)c1)c1cc2ccccc2[nH]1 [Example 1-109, N-(3,4-dihydroxyphenyl)-1H-indole-2-carboxamide] | not active
O=C(Cc1c[nH]c2ccccc12)NCc1ccc([N+](=O)[O-])cc1 [Example 1-46, 2-(1H-indol-3-yl)-N-(4-nitrobenzyl)acetamide] | 57.41%
O=C(Oc1cc(C(F)(F)F)cc(C(F)(F)F)c1)c1cc2cc(F)ccc2[nH]1 [Example 1-118, 3,5-bis(trifluoromethyl)phenyl 5-fluoro-1H-indole-2-carboxylate] | 49.17%
O=C(Nc1cc(C(F)(F)F)cc(C(F)(F)F)c1)c1cc2ccccc2[nH]1 [Example 1-84, N-(3,5-bis(trifluoromethyl)phenyl)-1H-indole-2-carboxamide] | 26.01%
O=C(Nc1ccc(Cl)c(Cl)c1)c1cc2ccccc2[nH]1 [Example 1-86, N-(3,4-dichlorophenyl)-1H-indole-2-carboxamide] | not active
COc1ccc(NC(=O)c2c[nH]c3ccccc23)cc1OC [Example 1-3, N-(3,4-dimethoxyphenyl)-1H-indole-3-carboxamide] | 62.73%
O=C(CCc1c[nH]c2ccccc12)NCc1ccc(Cl)c(Cl)c1 [Example 1-72, N-(3,4-dichlorobenzyl)-3-(1H-indol-3-yl)propanamide] | not active
COc1ccc(COC(=O)c2cc3ccccc3[nH]2)cc1 [Example 1-116, 4-methoxybenzyl 1H-indole-2-carboxylate] | 52.66%
COc1ccccc1NC(=O)Cc1c[nH]c2ccccc12 [Example 1-9, 2-(1H-indol-3-yl)-N-(2-methoxyphenyl)acetamide] | 80.82%
O=C(Cc1c[nH]c2ccccc12)NCc1ccccn1 [Example 1-56, 2-(1H-indol-3-yl)-N-(pyridin-2-ylmethyl)acetamide] | 96.79%
O=C(CCCc1c[nH]c2ccccc12)Nc1ccc(Cl)c(Cl)c1 [Example 1-79, N-(3,4-dichlorophenyl)-4-(1H-indol-3-yl)butanamide] | 61.61%
O=C(Nc1ccc(F)cc1)c1cc2cc(F)ccc2[nH]1 [Example 1-90, 5-fluoro-N-(4-fluorophenyl)-1H-indole-2-carboxamide] | 48.64%
COc1ccc(NC(=O)CCc2c[nH]c3ccccc23)cc1OC [Example 1-70, N-(3,4-dimethoxyphenyl)-3-(1H-indol-3-yl)propanamide] | not active

SMILES | Remaining activity % at 10 μM
O=C(Cc1c[nH]c2ccccc12)OCc1ccc([N+](=O)[O-])cc1 [Example 1-115, 4-nitrobenzyl 2-(1H-indol-3-yl)acetate] | 55.24%
O=C(Cc1c[nH]c2ccccc12)Nc1cc(F)cc(F)c1 [Example 1-18, N-(3,5-difluorophenyl)-2-(1H-indol-3-yl)acetamide] | 97.19%
COc1cccc(NC(=O)Cc2c[nH]c3ccccc23)c1 [Example 1-10, 2-(1H-indol-3-yl)-N-(3-methoxyphenyl)acetamide] | 89.33%
CC(C)c1ccc(NC(=O)Cc2c[nH]c3ccccc23)cc1 [Example 1-33, 2-(1H-indol-3-yl)-N-(4-isopropylphenyl)acetamide] | 83.43%
O=C(Cc1c[nH]c2ccccc12)NCc1cccc(F)c1 [Example 1-36, N-(3-fluorobenzyl)-2-(1H-indol-3-yl)acetamide] | 76.23%
O=C(O)c1ccc2[nH]c(C(=O)Nc3cc(C(F)(F)F)cc(C(F)(F)F)c3)cc2c1 [Example 1-101, 2-((3,5-bis(trifluoromethyl)phenyl)carbamoyl)-1H-indole-5-carboxylic acid] | 57.61%
Cc1cc(C)cc(NC(=O)c2cc3ccccc3[nH]2)c1 [Example 1-104, N-(3,5-dimethylphenyl)-1H-indole-2-carboxamide] | 66.73%
O=C(CCCc1c[nH]c2ccccc12)Nc1ccc(Br)cc1 [Example 1-76, N-(4-bromophenyl)-4-(1H-indol-3-yl)butanamide] | 79.65%
COC(=O)c1ccc(CNC(=O)c2cc3ccccc3[nH]2)cc1 [Example 1-88, methyl 4-((1H-indole-2-carboxamido)methyl)benzoate] | 37.79%
O=C(Cc1c[nH]c2ccccc12)NNc1ccc(Cl)cc1 [Example 1-53, N′-(4-chlorophenyl)-2-(1H-indol-3-yl)acetohydrazide] | not active
Cn1c(C(=O)Nc2cc(C(F)(F)F)cc(C(F)(F)F)c2)cc2cc(F)c(F)cc21 [Example 1-114, N-(3,5-bis(trifluoromethyl)phenyl)-5,6-difluoro-1-methyl-1H-indole-2-carboxamide] | 48.24%
O=C(Cc1c[nH]c2ccccc12)Nc1ccc(Br)cn1 [Example 1-21, N-(5-bromopyridin-2-yl)-2-(1H-indol-3-yl)acetamide] | 46.59%
O=C(CCCc1c[nH]c2ccccc12)Nc1ccc(Cl)c([N+](=O)[O-])c1 [Example 1-78, N-(4-chloro-3-nitrophenyl)-4-(1H-indol-3-yl)butanamide] | 42.24%
COc1ccc(CNC(=O)Cc2c[nH]c3ccccc23)cc1OC [Example 1-45, N-(3,4-dimethoxybenzyl)-2-(1H-indol-3-yl)acetamide] | 41.05%
O=C(Cc1c[nH]c2ccccc12)NCc1ccccc1Cl [Example 1-48, N-(2-chlorobenzyl)-2-(1H-indol-3-yl)acetamide] | 75.72%
COc1ccc(CNC(=O)Cc2c[nH]c3ccccc23)cc1 [Example 1-39, 2-(1H-indol-3-yl)-N-(4-methoxybenzyl)acetamide] | 91.57%
O=C(Cc1c[nH]c2ccccc12)Nc1ccccc1O [Example 1-7, N-(2-hydroxyphenyl)-2-(1H-indol-3-yl)acetamide] | 65.03%
O=C(Cc1c[nH]c2ccccc12)Nc1cccc([N+](=O)[O-])c1 [Example 1-30, 2-(1H-indol-3-yl)-N-(3-nitrophenyl)acetamide] | not active
O=C(Cc1c[nH]c2ccccc12)NCc1ccncc1 [Example 1-58, 2-(1H-indol-3-yl)-N-(pyridin-4-ylmethyl)acetamide] | not active
CCOC(=O)c1ccc(NC(=O)Cc2c[nH]c3ccccc23)cc1 [Example 1-29, ethyl 4-(2-(1H-indol-3-yl)acetamido)benzoate] | 76.8%
Cc1cccc(CNC(=O)Cc2c[nH]c3ccccc23)c1 [Example 1-40, 2-(1H-indol-3-yl)-N-(3-methylbenzyl)acetamide] | 95.87%
COc1ccc(NC(=O)c2cc3ccccc3[nH]2)cc1OC [Example 1-87, N-(3,4-dimethoxyphenyl)-1H-indole-2-carboxamide] | 71.67%
O=C(CCc1c[nH]c2ccccc12)Nc1ccc(Cl)c([N+](=O)[O-])c1 [Example 1-68, N-(4-chloro-3-nitrophenyl)-3-(1H-indol-3-yl)propanamide] | not active

Same assay, conditions: compound 10 μM, cells without the compound = 100%, 10 µM

SMILES | Remaining activity % at 10 μM
O=C(NNc1ccc(Cl)c(Cl)c1)c1cc2ccccc2[nH]1 [Example 1-89, N′-(3,4-dichlorophenyl)-1H-indole-2-carbohydrazide] | 83.22%
